Data reported in patent US20240158446A1, “CYCLIC COMPOUND HAVING SELECTIVE INHIBITORY ACTION ON KRAS OVER HRAS AND NRAS” (CHUGAI SEIYAKU KABUSHIKI KAISHA, priority 2021, published 2024).

Columns and labels:
[1] = biological target: GDP-bound KRAS wild-type protein (Homo sapiens, UniProt P01116); assay: Binding to KRAS by surface plasmon resonance (SPR), Single Cycle Kinetics; details: SPR, Single Cycle Kinetics, GDP-bound KRAS wild-type protein; read-out: KRAS KD
[2] = biological target: GDP-bound NRAS wild-type protein (Homo sapiens, UniProt P01111); assay: Binding to NRAS by surface plasmon resonance (SPR), Single Cycle Kinetics; details: SPR, GDP-bound NRAS wild-type protein vs GDP-bound KRAS wild-type protein
[3] = biological target: GDP-bound HRAS wild-type protein (Homo sapiens, UniProt P01112); assay: Binding to HRAS by surface plasmon resonance (SPR), Single Cycle Kinetics; details: SPR, GDP-bound HRAS wild-type protein vs GDP-bound KRAS wild-type protein
Chain of GDP-bound HRAS wild-type protein (P01112 whole entry): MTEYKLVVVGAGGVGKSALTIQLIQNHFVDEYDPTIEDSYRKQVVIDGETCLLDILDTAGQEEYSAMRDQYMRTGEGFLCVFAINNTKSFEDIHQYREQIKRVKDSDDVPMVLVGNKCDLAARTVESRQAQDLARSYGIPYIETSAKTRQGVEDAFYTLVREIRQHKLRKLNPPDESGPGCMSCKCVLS

Chain of GDP-bound NRAS wild-type protein (P01111 whole entry): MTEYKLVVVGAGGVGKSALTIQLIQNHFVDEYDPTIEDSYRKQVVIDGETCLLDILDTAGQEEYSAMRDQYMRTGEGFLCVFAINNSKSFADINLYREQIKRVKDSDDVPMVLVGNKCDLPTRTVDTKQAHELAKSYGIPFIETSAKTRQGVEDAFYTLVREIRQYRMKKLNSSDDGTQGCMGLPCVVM
Chain of GDP-bound KRAS wild-type protein (P01116 whole entry): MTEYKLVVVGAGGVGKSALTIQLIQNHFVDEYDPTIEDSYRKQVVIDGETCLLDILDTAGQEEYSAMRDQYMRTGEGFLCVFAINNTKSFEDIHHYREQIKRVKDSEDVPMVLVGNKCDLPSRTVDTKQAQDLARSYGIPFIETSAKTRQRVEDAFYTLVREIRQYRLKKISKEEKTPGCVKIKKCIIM

Kd [1] [nM] | SMILES | NRAS/KRAS (ratio of KD value for NRAS to KD value for KRAS) [2] | HRAS/KRAS (ratio of KD value for HRAS to KD value for KRAS) [3]
0.18 | C#CC[C@H]1C(=O)N[C@@H]([C@@H](C)CC)C(=O)N(C)CC(=O)N(C)[C@H]2C/C=C\CCN(C2=O)[C@@H](Cc2ccc(C(F)(F)F)cc2)C(=O)N(C)CC(=O)N[C@@H](CCc2ccc(C(F)(F)F)c(OC)c2)C(=O)N2C[C@@H](C)C[C@H]2C(=O)NC2(CC(C)(C)C2)C(=O)N(C)[C@@H](C2CCCC2)C(=O)N(C)[C@H](C(=O)N(C)CC)CC(=O)N1C [PP2055] | A (a compound having 10 or more and less than 20 is denoted as A) | B (a compound having 3 or more and less than 10 is denoted as B)
0.093 | C#CC[C@H]1C(=O)N[C@@H]([C@@H](C)CC)C(=O)N(C)CC(=O)N(C)[C@H]2C/C=C\CCN(C2=O)[C@@H](Cc2ccc(C(F)(F)F)cc2)C(=O)N(C)CC(=O)N[C@@H](CCc2ccc(C(F)(F)F)c(OC)c2)C(=O)N2C[C@H](OCC)C[C@H]2C(=O)NC2(CCC2)C(=O)N(C)[C@@H](C2CCCC2)C(=O)N(C)[C@H](C(=O)N(C)CCC)CC(=O)N1C [PP2059] | A (a compound having 10 or more and less than 20 is denoted as A) | A (a compound having 10 or more and less than 20 is denoted as A)
0.075 | C#CC[C@H]1C(=O)N[C@@H]([C@@H](C)CC)C(=O)N(C)CC(=O)N(C)[C@H]2C/C=C\CCN(C2=O)[C@@H](Cc2ccc(C(F)(F)F)cc2)C(=O)N(C)CC(=O)N[C@@H](CCc2ccc(C(F)(F)F)c(OC)c2)C(=O)N2C[C@@H](C)C[C@H]2C(=O)NC2(CCC2)C(=O)N(C)[C@@H](C2CCCC2)C(=O)N(C)[C@H](C(=O)N(C)CC)CC(=O)N1C [PP2061] | AA (a compound having 20 or more is denoted as AA) | A (a compound having 10 or more and less than 20 is denoted as A)
0.19 | CCO[C@@H]1C[C@H]2C(=O)NC3(CC(C)(C)C3)C(=O)N(C)[C@@H](C(CC)CC)C(=O)N(C)[C@H](C(=O)N(C)C)CC(=O)N(C)[C@@H](CC)C(=O)N[C@@H]([C@@H](C)CC)C(=O)N(C)CC(=O)N(C)[C@H]3C/C=C\CCN(C3=O)[C@@H](Cc3ccc(C(F)(F)F)cc3)C(=O)N(C)CC(=O)N[C@@H](CCc3cc(F)c(C(F)(F)F)c(F)c3)C(=O)N2C1 [PP2062] | AA (a compound having 20 or more is denoted as AA) | A (a compound having 10 or more and less than 20 is denoted as A)
0.22 | CC[C@H](C)[C@@H]1NC(=O)[C@H](C(C)C)N(C)C(=O)C[C@@H](C(=O)N(C)CC)N(C)C(=O)[C@H](C2CCCC2)N(C)C(=O)C2(CCC2)NC(=O)[C@@H]2C[C@H](C)CN2C(=O)[C@H](CCc2ccc(C(F)(F)F)c(OC)c2)NC(=O)CN(C)C(=O)[C@H](Cc2ccc(C(F)(F)F)cc2)N2CC/C=C\C[C@@H](C2=O)N(C)C(=O)CN(C)C1=O [PP2065] | A (a compound having 10 or more and less than 20 is denoted as A) | B (a compound having 3 or more and less than 10 is denoted as B)
0.25 | CCO[C@@H]1C[C@H]2C(=O)NC3(CC(C)(C)C3)C(=O)N(C)[C@@H](C(CC)CC)C(=O)N(C)[C@H](C(=O)N(C)C)CC(=O)N(C)[C@@H](CC)C(=O)N[C@@H]([C@@H](C)CC)C(=O)N(C)CC(=O)N(C)[C@H]3C/C=C\CCN(C3=O)[C@@H](Cc3ccc(C(F)(F)F)cc3)C(=O)N(C)CC(=O)N[C@@H](CCc3ccc(C(F)(F)F)c(OC)c3)C(=O)N2C1 [PP2066] | A (a compound having 10 or more and less than 20 is denoted as A) | B (a compound having 3 or more and less than 10 is denoted as B)
0.24 | CCCN(C)C(=O)[C@@H]1CC(=O)N(C)[C@@H](C(C)C)C(=O)N[C@@H]([C@@H](C)CC)C(=O)N(C)CC(=O)N(C)[C@H]2C/C=C\CCN(C2=O)[C@@H](Cc2ccc(C(F)(F)F)cc2)C(=O)N(C)CC(=O)N[C@@H](CCc2ccc(C(F)(F)F)c(OC)c2)C(=O)N2C[C@@H](C)C[C@H]2C(=O)NC2(CCC2)C(=O)N(C)[C@@H](C2CCCC2)C(=O)N1C [PP2067] | AA (a compound having 20 or more is denoted as AA) | A (a compound having 10 or more and less than 20 is denoted as A)
0.36 | CCC[C@H]1C(=O)N[C@@H]([C@@H](C)CC)C(=O)N(C)CC(=O)N(C)[C@H]2C/C=C\CCN(C2=O)[C@@H](Cc2ccc(C)cc2)C(=O)N(C)CC(=O)N[C@@H](CCc2ccc(C(F)(F)F)c(OC)c2)C(=O)N2C[C@H](OCC)C[C@H]2C(=O)NC2(CC(C)(C)C2)C(=O)N(C)[C@@H](C(CC)CC)C(=O)N(C)[C@H](C(=O)N(C)C)CC(=O)N1C [PP2068] | A (a compound having 10 or more and less than 20 is denoted as A) | B (a compound having 3 or more and less than 10 is denoted as B)
0.082 | CC[C@H](C)[C@@H]1NC(=O)[C@H](C2CC2)N(C)C(=O)C[C@@H](C(=O)N(C)CC)N(C)C(=O)[C@H](C2CCCC2)N(C)C(=O)C2(CCC2)NC(=O)[C@@H]2C[C@H](C)CN2C(=O)[C@H](CCc2ccc(C(F)(F)F)c(OC)c2)NC(=O)CN(C)C(=O)[C@H](Cc2ccc(C(F)(F)F)cc2)N2CC/C=C\C[C@@H](C2=O)N(C)C(=O)CN(C)C1=O [PP2069] | AA (a compound having 20 or more is denoted as AA) | A (a compound having 10 or more and less than 20 is denoted as A)
0.11 | CCCN(C)C(=O)[C@@H]1CC(=O)N(C)[C@@H](C2CC2)C(=O)N[C@@H]([C@@H](C)CC)C(=O)N(C)CC(=O)N(C)[C@H]2C/C=C\CCN(C2=O)[C@@H](Cc2ccc(C(F)(F)F)cc2)C(=O)N(C)CC(=O)N[C@@H](CCc2ccc(C(F)(F)F)c(OC)c2)C(=O)N2C[C@@H](C)C[C@H]2C(=O)NC2(CCC2)C(=O)N(C)[C@@H](C2CCCC2)C(=O)N1C [PP2070] | A (a compound having 10 or more and less than 20 is denoted as A) | A (a compound having 10 or more and less than 20 is denoted as A)
0.1 | CC[C@H](C)[C@@H]1NC(=O)[C@H](C2CCC2)N(C)C(=O)C[C@@H](C(=O)N(C)CC)N(C)C(=O)[C@H](C2CCCC2)N(C)C(=O)C2(CCC2)NC(=O)[C@@H]2C[C@H](C)CN2C(=O)[C@H](CCc2ccc(C(F)(F)F)c(OC)c2)NC(=O)CN(C)C(=O)[C@H](Cc2ccc(C(F)(F)F)cc2)N2CC/C=C\C[C@@H](C2=O)N(C)C(=O)CN(C)C1=O [PP2071] | A (a compound having 10 or more and less than 20 is denoted as A) | A (a compound having 10 or more and less than 20 is denoted as A)
0.12 | CCCN(C)C(=O)[C@@H]1CC(=O)N(C)[C@@H](C2CCC2)C(=O)N[C@@H]([C@@H](C)CC)C(=O)N(C)CC(=O)N(C)[C@H]2C/C=C\CCN(C2=O)[C@@H](Cc2ccc(C(F)(F)F)cc2)C(=O)N(C)CC(=O)N[C@@H](CCc2ccc(C(F)(F)F)c(OC)c2)C(=O)N2C[C@@H](C)C[C@H]2C(=O)NC2(CCC2)C(=O)N(C)[C@@H](C2CCCC2)C(=O)N1C [PP2072] | A (a compound having 10 or more and less than 20 is denoted as A) | A (a compound having 10 or more and less than 20 is denoted as A)
